Among the data in ChEMBL document CHEMBL1136565, “5-Azidoepibatidine: an exceptionally potent photoaffinity ligand for neuronal alpha 4 beta 2 and alpha 7 nicotinic acetylcholine receptors” (Bioorg Med Chem Lett, 2003) are Ki values, retold here.

Test [1] addresses Neuronal acetylcholine receptor subunit alpha-7 (Homo sapiens, UniProt P36544). Description: Binding affinity to alpha-7 receptor subtype from human neuroblastoma SH-SY5Y cells was measured using [125I]-alpha-bungarotoxin as radioligand. The class given is cell-based.
Test [2] in a line: Binding affinity to Drosophila nicotinic receptor was measured using [3H]imidacloprid as radioligand. Set-up: species or system Drosophila melanogaster.
In test [3] the target is Neuronal acetylcholine receptor; alpha4/beta2 (Homo sapiens, UniProt P17787+P43681). Put plainly: Binding affinity to alpha4 beta-2 receptor subtype from mouse fibroblast M10 cells was measured using [3 H]nicotine. The class given is cell-based.
Sequence of Neuronal acetylcholine receptor; alpha4/beta2 (P17787 whole entry): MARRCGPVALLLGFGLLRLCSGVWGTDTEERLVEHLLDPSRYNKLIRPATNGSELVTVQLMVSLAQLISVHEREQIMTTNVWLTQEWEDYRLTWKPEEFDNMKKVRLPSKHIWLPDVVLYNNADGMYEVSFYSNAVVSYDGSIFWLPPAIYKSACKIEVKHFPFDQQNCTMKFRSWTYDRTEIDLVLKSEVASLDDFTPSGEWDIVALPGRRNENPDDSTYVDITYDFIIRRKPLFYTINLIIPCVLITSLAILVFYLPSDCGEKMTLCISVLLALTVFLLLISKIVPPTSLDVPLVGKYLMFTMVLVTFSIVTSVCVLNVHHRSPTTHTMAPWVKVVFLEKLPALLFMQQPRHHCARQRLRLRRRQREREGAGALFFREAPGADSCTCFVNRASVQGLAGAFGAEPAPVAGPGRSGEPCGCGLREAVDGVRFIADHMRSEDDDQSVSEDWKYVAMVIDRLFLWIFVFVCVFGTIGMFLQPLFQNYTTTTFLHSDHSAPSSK
Sequence of Neuronal acetylcholine receptor; alpha4/beta2 (P43681 whole entry): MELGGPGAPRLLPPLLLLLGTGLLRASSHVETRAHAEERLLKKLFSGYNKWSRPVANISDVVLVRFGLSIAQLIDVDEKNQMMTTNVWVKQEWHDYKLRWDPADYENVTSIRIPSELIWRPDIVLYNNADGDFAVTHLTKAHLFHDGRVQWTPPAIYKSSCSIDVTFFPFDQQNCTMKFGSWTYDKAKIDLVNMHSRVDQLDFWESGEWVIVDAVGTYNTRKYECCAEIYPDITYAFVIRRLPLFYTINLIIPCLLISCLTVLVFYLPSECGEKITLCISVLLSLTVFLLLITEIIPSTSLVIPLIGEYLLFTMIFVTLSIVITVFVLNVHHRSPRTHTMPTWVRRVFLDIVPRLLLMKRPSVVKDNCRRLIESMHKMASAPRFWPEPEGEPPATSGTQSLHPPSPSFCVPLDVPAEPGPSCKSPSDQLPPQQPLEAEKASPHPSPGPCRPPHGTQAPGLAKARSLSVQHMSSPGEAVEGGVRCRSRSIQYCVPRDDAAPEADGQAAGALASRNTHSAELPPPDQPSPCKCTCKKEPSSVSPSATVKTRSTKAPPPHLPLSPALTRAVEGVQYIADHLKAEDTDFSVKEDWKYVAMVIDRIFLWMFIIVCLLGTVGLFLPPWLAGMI

Sequence of Neuronal acetylcholine receptor subunit alpha-7 (P36544 whole entry): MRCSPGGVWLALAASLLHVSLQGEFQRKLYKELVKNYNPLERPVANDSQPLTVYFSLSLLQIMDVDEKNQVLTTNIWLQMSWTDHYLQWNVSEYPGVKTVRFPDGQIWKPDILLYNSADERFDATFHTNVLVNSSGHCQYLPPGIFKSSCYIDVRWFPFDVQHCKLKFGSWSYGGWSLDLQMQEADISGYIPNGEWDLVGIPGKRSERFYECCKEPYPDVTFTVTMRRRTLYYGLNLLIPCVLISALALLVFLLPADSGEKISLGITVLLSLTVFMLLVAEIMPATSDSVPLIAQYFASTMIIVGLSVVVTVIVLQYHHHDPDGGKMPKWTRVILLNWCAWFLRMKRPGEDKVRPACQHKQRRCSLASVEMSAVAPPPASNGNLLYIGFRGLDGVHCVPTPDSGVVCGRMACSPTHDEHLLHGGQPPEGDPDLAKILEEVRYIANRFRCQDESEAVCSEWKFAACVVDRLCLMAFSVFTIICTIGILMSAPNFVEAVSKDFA

Take `Clc1ccc(C2CC3CCC2N3)cn1` (stereo not given) [EPIBATIDINE]: the figures for the Ki in test [1] and in test [2] were 10.2 nM and 200 nM, respectively.

Take `[N-]=[N+]=Nc1cc(C2CC3CCC2N3)cnc1Cl` (stereo not given) [AZIDOEPIBATIDINE]: the values for the Ki in test [1], in test [2] and in test [3] were 9.7 nM, 2100 nM and 0.027 nM, respectively.
